Each structure is given as a SMILES string.

The target in the test is T1, full-length ATR (Homo sapiens, UniProt Q13535).
T1 construct: Assays were carried out at 25° C. in the presence of 5 nM full-length ATR
Briefly: ATR Inhibition Assay (radioactive-phosphate incorporation). As to conditions: Ki(app); 5 nM full-length ATR, 10 μM [γ-33P]ATP, 800 μM target peptide, 25° C. Type of test: biochemical. The procedure:
Compounds were screened for their ability to inhibit ATR kinase using a radioactive-phosphate incorporation assay. Assays were carried out in a mixture of 50 mM Tris/HCl (pH 7.5), 10 mM MgCl2 and 1 mM DTT. Final substrate concentrations were 10 μM [γ-33P]ATP (3 mCi 33P ATP/mmol ATP, Perkin Elmer) and 800 μM target peptide (ASELPASQPQPFSAKKK).
Assays were carried out at 25° C. in the presence of 5 nM full-length ATR. An assay stock buffer solution was prepared containing all of the reagents listed above, with the exception of ATP and the test compound of interest. 13.5 μL of the stock solution was placed in a 96 well plate followed by addition of 2 μL of DMSO stock containing serial dilutions of the test compound (typically starting from a final concentration of 15 μM with 3-fold serial dilutions) in duplicate (final DMSO concentration 7%). The plate was pre-incubated for 10 minutes at 25° C. and the reaction initiated by addition of 15 μL [γ-33P]ATP (final concentration 10 μM).
The reaction was stopped after […] by the addition of 30 μL 0.1M phosphoric acid containing 2 mM ATP. […]
After removing mean background values for all of the data points, Ki(app) data were calculated from non-linear regression analysis of the initial rate data using the Prism software package (GraphPad Prism version 3.0cx for Macintosh, GraphPad Software, San Diego Calif., USA).

T1 sequence (Q13535 whole entry): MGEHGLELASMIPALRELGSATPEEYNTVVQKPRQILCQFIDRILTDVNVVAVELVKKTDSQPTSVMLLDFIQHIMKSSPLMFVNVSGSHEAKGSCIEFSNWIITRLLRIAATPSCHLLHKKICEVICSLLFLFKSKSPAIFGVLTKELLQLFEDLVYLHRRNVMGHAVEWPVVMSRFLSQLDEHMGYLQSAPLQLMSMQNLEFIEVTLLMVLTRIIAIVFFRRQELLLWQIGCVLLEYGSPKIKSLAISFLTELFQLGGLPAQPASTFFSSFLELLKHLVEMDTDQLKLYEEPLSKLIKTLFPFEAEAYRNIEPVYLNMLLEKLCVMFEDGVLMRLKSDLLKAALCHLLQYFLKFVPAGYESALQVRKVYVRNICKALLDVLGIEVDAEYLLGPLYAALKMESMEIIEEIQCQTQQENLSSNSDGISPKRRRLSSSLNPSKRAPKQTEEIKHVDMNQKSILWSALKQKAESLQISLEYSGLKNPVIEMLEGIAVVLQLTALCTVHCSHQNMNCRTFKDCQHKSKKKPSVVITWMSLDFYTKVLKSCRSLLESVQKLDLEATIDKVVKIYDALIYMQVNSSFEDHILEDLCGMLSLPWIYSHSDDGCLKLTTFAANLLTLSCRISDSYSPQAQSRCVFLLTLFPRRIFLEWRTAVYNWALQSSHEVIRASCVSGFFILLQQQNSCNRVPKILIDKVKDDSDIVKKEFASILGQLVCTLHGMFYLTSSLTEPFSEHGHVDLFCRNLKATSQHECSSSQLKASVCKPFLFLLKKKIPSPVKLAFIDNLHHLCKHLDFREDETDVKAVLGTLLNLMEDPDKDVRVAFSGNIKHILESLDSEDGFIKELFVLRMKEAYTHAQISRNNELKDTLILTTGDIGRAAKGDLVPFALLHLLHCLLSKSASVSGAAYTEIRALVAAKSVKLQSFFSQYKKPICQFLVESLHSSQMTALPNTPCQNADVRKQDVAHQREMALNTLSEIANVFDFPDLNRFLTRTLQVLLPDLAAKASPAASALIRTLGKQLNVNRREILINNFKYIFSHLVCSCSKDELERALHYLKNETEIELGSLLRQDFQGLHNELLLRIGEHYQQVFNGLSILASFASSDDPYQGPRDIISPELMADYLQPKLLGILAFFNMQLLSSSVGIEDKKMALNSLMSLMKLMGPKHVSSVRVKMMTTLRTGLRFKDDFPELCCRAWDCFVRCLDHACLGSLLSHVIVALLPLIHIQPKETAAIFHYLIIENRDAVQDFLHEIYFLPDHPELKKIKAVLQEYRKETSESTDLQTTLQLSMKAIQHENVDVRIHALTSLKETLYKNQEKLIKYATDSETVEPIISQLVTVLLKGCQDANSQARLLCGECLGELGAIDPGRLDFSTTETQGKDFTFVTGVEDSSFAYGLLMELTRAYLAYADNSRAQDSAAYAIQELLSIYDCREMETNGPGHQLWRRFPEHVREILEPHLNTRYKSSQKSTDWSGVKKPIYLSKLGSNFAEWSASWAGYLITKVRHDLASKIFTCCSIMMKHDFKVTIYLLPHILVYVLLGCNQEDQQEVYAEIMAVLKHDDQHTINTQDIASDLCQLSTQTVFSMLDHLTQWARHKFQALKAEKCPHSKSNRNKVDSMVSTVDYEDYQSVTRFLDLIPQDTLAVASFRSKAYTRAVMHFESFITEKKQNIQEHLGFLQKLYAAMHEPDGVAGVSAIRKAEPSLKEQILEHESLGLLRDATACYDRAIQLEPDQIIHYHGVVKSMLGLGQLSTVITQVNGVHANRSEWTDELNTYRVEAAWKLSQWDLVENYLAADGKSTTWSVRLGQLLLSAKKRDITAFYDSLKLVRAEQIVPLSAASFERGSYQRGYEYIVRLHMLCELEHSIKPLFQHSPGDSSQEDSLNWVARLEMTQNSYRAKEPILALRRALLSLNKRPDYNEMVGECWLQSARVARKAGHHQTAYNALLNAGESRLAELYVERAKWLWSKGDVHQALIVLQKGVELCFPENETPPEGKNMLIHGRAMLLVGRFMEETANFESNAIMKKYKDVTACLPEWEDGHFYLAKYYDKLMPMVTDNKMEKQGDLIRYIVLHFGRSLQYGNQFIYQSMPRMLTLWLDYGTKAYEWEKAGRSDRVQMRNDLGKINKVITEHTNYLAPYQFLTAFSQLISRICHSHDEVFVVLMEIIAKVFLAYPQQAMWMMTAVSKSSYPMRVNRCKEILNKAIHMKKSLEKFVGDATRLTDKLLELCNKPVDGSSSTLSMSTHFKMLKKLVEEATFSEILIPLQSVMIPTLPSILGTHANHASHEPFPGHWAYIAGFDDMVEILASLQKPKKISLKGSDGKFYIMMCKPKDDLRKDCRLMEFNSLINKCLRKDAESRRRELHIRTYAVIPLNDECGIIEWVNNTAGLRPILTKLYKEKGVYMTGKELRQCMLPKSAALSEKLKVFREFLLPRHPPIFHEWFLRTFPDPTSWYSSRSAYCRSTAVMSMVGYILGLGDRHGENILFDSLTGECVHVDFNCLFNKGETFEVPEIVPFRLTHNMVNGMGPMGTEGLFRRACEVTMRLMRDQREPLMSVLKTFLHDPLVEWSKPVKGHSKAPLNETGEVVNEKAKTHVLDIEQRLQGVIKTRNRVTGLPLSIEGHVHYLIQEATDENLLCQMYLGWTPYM

With `CC(C)S(=O)(=O)c1ccc(-c2cnc(N)c(-c3cc(-c4ccccc4)[nH]n3)n2)cc1` [Compound I-1, 5-(4-(isopropylsulfonyl)phenyl)-3-(5-phenyl-1H-pyrazol-3-yl)pyrazin-2-amine], the Ki came out at 2.86 nM. With `CC(C)S(=O)(=O)c1ccc(-c2cnc(N)c(-c3ncc(-c4ccccc4)o3)n2)cc1` [Compound I-2, 5-(4-(isopropylsulfonyl)phenyl)-3-(5-phenyloxazol-2-yl)pyrazin-2-amine] the figure was 4.03 nM.

These data come from patent publication US8841337B2, “Compounds useful as inhibitors of ATR kinase” (Vertex Pharmaceuticals Incorporated, priority 2011, dated 2014).
